According to patent US10556888B2, “Pyrazole compounds or salts thereof, preparation methods therefor, herbicidal compositions and use thereof” (QINGDAO KINGAGROOT CHEMICAL COMPOUNDS CO., LTD, priority 2015, dated 2020):

Assays:
[1] = system: Monocotyledonous and dicotyledonous weed; assay: Post-emergence test experiment, weed control effect (Table 2); type: in vivo; parameters: key to weed control effect, Setaria viridis (level) / weed control effect, Rorippa indica (level) / weed control effect, Abutilon theophrasti (level) / weed control effect, Echinochloa crus-galli (level) / weed control effect, Digitaria sanguinalis (level): Level 10: completely dead; Level 9: above 90% growth inhibition rate; Level 8: above 80% growth inhibition rate; Level 7: above 70% growth inhibition rate; Level 6: above 60% growth inhibition rate; Level 5: above 50% growth inhibition rate; Level 4: above 30% growth inhibition rate; Level 3: above 20% growth inhibition rate; Level 2: above 10% growth inhibition rate; Level 1: above 1-10% growth inhibition rate; Level 0: no effect; details: 3 weeks after spraying, greenhouse
Protocol: (§1) Post-emergence test experiment: Monocotyledonous and dicotyledonous weed seeds and main crop seeds (i.e. wheat, corn, rice, soybean, cotton, oilseed, millet and sorghum.) were put into a plastic pot loaded with soil. Then covered with 0.5-2 cm soil, the seeds were allowed to grow in good greenhouse environment. The test plants were treated at 2-3 leaf stage 2-3 weeks after sowing. The test compounds of the invention were dissolved with acetone respectively, then added with 80 tween and diluted by certain amount of water to certain concentration. The solution was sprayed to the plants with a sprayer. Then the plants were cultured for 3 weeks in the greenhouse.

[2] = system: main crop (wheat, corn, rice, soybean, cotton, oilseed, millet and sorghum); assay: Post-emergence test experiment, main crops (Table 2); type: in vivo; parameters: key: Level 10: completely dead; Level 9: above 90% growth inhibition rate; Level 8: above 80% growth inhibition rate; Level 7: above 70% growth inhibition rate; Level 6: above 60% growth inhibition rate; Level 5: above 50% growth inhibition rate; Level 4: above 30% growth inhibition rate; Level 3: above 20% growth inhibition rate; Level 2: above 10% growth inhibition rate; Level 1: above 1-10% growth inhibition rate; Level 0: no effect; details: 3 weeks after spraying, greenhouse
Protocol: as §1

Row | Compound | weed control effect, Abutilon theophrasti (level) ([1]; 30 g/ha) | weed control effect, Bidens pilosa (level) ([1]; 30 g/ha) | weed control effect, Digitaria sanguinalis (level) ([1]; 30 g/ha) | weed control effect, Echinochloa crus-galli (level) ([1]; 30 g/ha) | weed control effect, Rorippa indica (level) ([1]; 30 g/ha) | weed control effect, Setaria viridis (level) ([1]; 30 g/ha) | effect on crop, corn (level) ([2]; 30 g/ha) | effect on crop, rice (level) ([2]; 30 g/ha) | effect on crop, wheat (level) ([2]; 30 g/ha) | weed control effect, Abutilon theophrasti (level) ([1]; 120 g/ha) | weed control effect, Bidens pilosa (level) ([1]; 120 g/ha) | weed control effect, Digitaria sanguinalis (level) ([1]; 120 g/ha) | weed control effect, Echinochloa crus-galli (level) ([1]; 120 g/ha) | weed control effect, Rorippa indica (level) ([1]; 120 g/ha) | weed control effect, Setaria viridis (level) ([1]; 120 g/ha) | effect on crop, corn (level) ([2]; 120 g/ha) | effect on crop, rice (level) ([2]; 120 g/ha) | effect on crop, wheat (level) ([2]; 120 g/ha) | other results
1 | CCOCCOCc1c(S(C)(=O)=O)ccc(C(=O)c2cnn(C)c2OC(=O)c2cn(C)nc2C)c1Cl [Compound 45] | 7 (Level 7: above 70% growth inhibition rate) | 7 (Level 7: above 70% growth inhibition rate) | 7 (Level 7: above 70% growth inhibition rate) | 9 (Level 9: above 90% growth inhibition rate) | 10 | 7 (Level 7: above 70% growth inhibition rate) | 0 | 3 (Level 3: above 20% growth inhibition rate) | 0 |  |  |  |  |  |  |  |  |  | 
2 | Cc1cnn(Cc2c(S(C)(=O)=O)ccc(C(=O)c3c(C)nn(C)c3OC(=O)c3cnn(C)c3)c2Cl)c1 [Compound 14] |  |  |  |  |  |  |  |  |  | 6 (Level 6: above 60% growth inhibition rate) | 6 (Level 6: above 60% growth inhibition rate) | 0 | 10 | 4 (Level 4: above 30% growth inhibition rate) | 1 (Level 1: above 1-10% growth inhibition rate) | 0 | 0 | 0 | 
3 | Cc1cnn(Cc2c(S(C)(=O)=O)ccc(C(=O)c3c(C4CC4)nn(C)c3OC(=O)c3cn(C)nc3C)c2Cl)c1 [Compound 12] |  |  |  |  |  |  |  |  |  | 6 (Level 6: above 60% growth inhibition rate) | 6 (Level 6: above 60% growth inhibition rate) | 0 | 10 | 4 (Level 4: above 30% growth inhibition rate) | 1 (Level 1: above 1-10% growth inhibition rate) | 0 | 0 | 0 | 
4 | CCc1nn(C)c(OC(=O)c2cn(C)nc2C)c1C(=O)c1ccc(S(C)(=O)=O)c(Cn2nc(C)cc2C)c1Cl [Compound 30] |  |  |  |  |  |  |  |  |  | 6 (Level 6: above 60% growth inhibition rate) | 6 (Level 6: above 60% growth inhibition rate) | 4 (Level 4: above 30% growth inhibition rate) | 8 (Level 8: above 80% growth inhibition rate) | 4 (Level 4: above 30% growth inhibition rate) | 10 | 0 | 0 | 0 | 
5 | CCc1nn(CC)c(OC(=O)c2cn(C)nc2C)c1C(=O)c1ccc(S(C)(=O)=O)c(COCC(F)F)c1Cl [Compound 94] |  |  |  |  |  |  |  |  |  |  |  |  |  |  |  |  |  |  | weed control effect, Abutilon theophrasti (level) ([1]; 60 g/ha): 10; weed control effect, Bidens pilosa (level) ([1]; 60 g/ha): 8 (Level 8: above 80% growth inhibition rate); weed control effect, Digitaria sanguinalis (level) ([1]; 60 g/ha): 8 (Level 8: above 80% growth inhibition rate); weed control effect, Echinochloa crus-galli (level) ([1]; 60 g/ha): 8 (Level 8: above 80% growth inhibition rate); weed control effect, Rorippa indica (level) ([1]; 60 g/ha): 10; weed control effect, Setaria viridis (level) ([1]; 60 g/ha): 10; effect on crop, corn (level) ([2]; 60 g/ha): 0; effect on crop, rice (level) ([2]; 60 g/ha): 3 (Level 3: above 20% growth inhibition rate); effect on crop, wheat (level) ([2]; 60 g/ha): 0
6 | CCOCc1c(S(C)(=O)=O)ccc(C(=O)c2c(C)nn(C)c2OC(=O)c2cnn(C)c2)c1Cl [Compound 73] | 7 (Level 7: above 70% growth inhibition rate) | 7 (Level 7: above 70% growth inhibition rate) | 9 (Level 9: above 90% growth inhibition rate) | 10 | 10 | 9 (Level 9: above 90% growth inhibition rate) | 0 | 3 (Level 3: above 20% growth inhibition rate) | 0 |  |  |  |  |  |  |  |  |  | 
7 | Cc1cnn(Cc2c(S(C)(=O)=O)ccc(C(=O)c3c(C)nn(C)c3OC(=O)c3cn(C)nc3C)c2Cl)c1 [Compound 04] |  |  |  |  |  |  |  |  |  | 6 (Level 6: above 60% growth inhibition rate) | 6 (Level 6: above 60% growth inhibition rate) | 1 (Level 1: above 1-10% growth inhibition rate) | 10 | 4 (Level 4: above 30% growth inhibition rate) | 5 (Level 5: above 50% growth inhibition rate) | 0 | 0 | 0 | 
8 | Cc1ccn(Cc2c(S(C)(=O)=O)ccc(C(=O)c3c(C4CC4)nn(C)c3OC(=O)c3cn(C)nc3C)c2Cl)n1 [Compound 09] |  |  |  |  |  |  |  |  |  | 7 (Level 7: above 70% growth inhibition rate) | 9 (Level 9: above 90% growth inhibition rate) | 2 (Level 2: above 10% growth inhibition rate) | 9 (Level 9: above 90% growth inhibition rate) | 10 | 6 (Level 6: above 60% growth inhibition rate) | 0 | 1 (Level 1: above 1-10% growth inhibition rate) | 0 | 
9 | C#CCOCc1c(S(C)(=O)=O)ccc(C(=O)c2cnn(C)c2OC(=O)c2cn(C)nc2C)c1Cl [Compound 41] | 7 (Level 7: above 70% growth inhibition rate) | 7 (Level 7: above 70% growth inhibition rate) | 8 (Level 8: above 80% growth inhibition rate) | 10 | 10 | 10 | 0 | 5 (Level 5: above 50% growth inhibition rate) | 0 |  |  |  |  |  |  |  |  |  | 
10 | CCOCCOCc1c(S(C)(=O)=O)ccc(C(=O)c2cnn(C)c2OC(=O)c2cnn(C)c2OCC)c1Cl [Compound 59] | 7 (Level 7: above 70% growth inhibition rate) | 7 (Level 7: above 70% growth inhibition rate) | 7 (Level 7: above 70% growth inhibition rate) | 8 (Level 8: above 80% growth inhibition rate) | 10 | 6 (Level 6: above 60% growth inhibition rate) | 0 | 3 (Level 3: above 20% growth inhibition rate) | 0 |  |  |  |  |  |  |  |  |  | 
11 | Cn1cc(C(=O)Oc2c(C(=O)c3ccc(S(C)(=O)=O)c(COCC(F)(F)F)c3Cl)cnn2C)cn1 [Compound 67] | 7 (Level 7: above 70% growth inhibition rate) | 7 (Level 7: above 70% growth inhibition rate) | 7 (Level 7: above 70% growth inhibition rate) | 10 | 10 | 9 (Level 9: above 90% growth inhibition rate) | 1 (Level 1: above 1-10% growth inhibition rate) | 3 (Level 3: above 20% growth inhibition rate) | 0 |  |  |  |  |  |  |  |  |  | 
